Patent US20230129258A1, “HETEROTANDEM BICYCLIC PEPTIDE COMPLEXES” (BicycleTx Limited, priority 2019, published 2023)
Like-named read-outs stand apart in the source and are kept apart here.

Target: CD137 (Homo sapiens, UniProt Q07011)
Assay: CD137 reporter assay (Promega CD137 luciferase reporter, Jurkat cells) in co-culture with Nectin-4-expressing tumor cells
Type: cell-based
Parameters: host or cells: Jurkat reporter cells
[1] = co-culture with HT1376, Table 2A

Chain of CD137 (Q07011 24-255): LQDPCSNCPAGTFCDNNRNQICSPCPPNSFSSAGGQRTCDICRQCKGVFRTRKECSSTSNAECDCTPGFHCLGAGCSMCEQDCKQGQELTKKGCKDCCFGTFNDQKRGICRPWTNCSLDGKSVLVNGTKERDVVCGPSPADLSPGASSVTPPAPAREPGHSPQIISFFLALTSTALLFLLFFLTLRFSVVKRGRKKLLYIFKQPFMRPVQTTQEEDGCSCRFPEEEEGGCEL

In the case of `CCCC[C@@H]1NC(=O)[C@H](Cc2ccc(O)cc2)NC(=O)[C@@H]2CCCN2C(=O)[C@H](CC(=O)O)NC(=O)[C@H](C)NC(=O)[C@H](Cc2ccccc2)NC(=O)[C@@H]2CSCCC(=O)N3CN(CN(C3)C(=O)CCSC[C@@H](C(=O)N[C@@H](C)C(N)=O)NC1=O)C(=O)CCSC[C@H](NC(C)=O)C(=O)N[C@@H](CC(C)(C)C)C(=O)N1CCC[C@H]1C(=O)N[C@@H](CCC(=O)O)C(=O)N[C@H](CCCCNC(=O)CCc1cn(CCOCCOCCOCCN(CCOCCOCCOCCC(=O)N[C@H]3CSCCC(=O)N4CN5CN(C4)C(=O)CCSC[C@H](NC(=O)[C@@H](CC(=O)O)NC(=O)[C@H](Cc4cccc6ccccc46)NC(=O)[C@@H]4CCCN4C3=O)C(=O)N[C@@H](CCSC)C(=O)N[C@@H](CCCCNC(=N)N)C(=O)N[C@@H](CC(=O)O)C(=O)N[C@@H](Cc3c[nH]c4ccccc34)C(=O)N[C@@H](CO)C(=O)N[C@@H]([C@@H](C)O)C(=O)N3CCC[C@H]3C(=O)N3C[C@H](O)C[C@H]3C(=O)N[C@@H](Cc3c[nH]c4ccccc34)C(=O)N[C@H](C(N)=O)CSCCC5=O)CCOCCOCCOCCn3cc(CCC(=O)NCCCC[C@H]4NC(=O)[C@H](CCC(=O)O)NC(=O)[C@@H]5CCCN5C(=O)[C@H](CC(C)(C)C)NC(=O)[C@@H](NC(C)=O)CSCCC(=O)N5CN6CN(C5)C(=O)CCSC[C@H](NC(=O)[C@H](Cc5ccc(O)cc5)NC(=O)[C@@H]5CCCN5C4=O)C(=O)N[C@@H](Cc4ccccc4)C(=O)N[C@@H](C)C(=O)N[C@@H](CC(=O)O)C(=O)N4CCC[C@H]4C(=O)N[C@@H](Cc4ccc(O)cc4)C(=O)N[C@@H](CCCC)C(=O)N[C@H](C(=O)N[C@@H](CCCCNC(=O)c4ccc(-c5c7ccc(=N)c(S(=O)(=O)O)c-7oc7c(S(=O)(=O)O)c(N)ccc57)c(C(=O)O)c4)C(N)=O)CSCCC6=O)nn3)nn1)C(=O)N1CCC[C@H]1C(=O)N[C@@H](Cc1ccc(O)cc1)C(=O)N2` [BCY13583], the Emax [1] is reported as 63 fold induction over background.

`CCCC[C@@H]1NC(=O)[C@H](Cc2ccc(O)cc2)NC(=O)[C@@H]2CCCN2C(=O)[C@H](CC(=O)O)NC(=O)[C@H](C)NC(=O)[C@H](Cc2ccccc2)NC(=O)[C@@H]2CSCCC(=O)N3CN(CN(C3)C(=O)CCSC[C@@H](C(=O)N[C@@H](C)C(N)=O)NC1=O)C(=O)CCSC[C@H](NC(C)=O)C(=O)N[C@@H](CC(C)(C)C)C(=O)N1CCC[C@H]1C(=O)N[C@@H](CCC(=O)O)C(=O)N[C@H](CCCCNC(=O)CCc1cn(CCOCCOCCOCCOCCOCCOCCOCCOCCOCCOCCNC(=O)CCOCC(COCCC(=O)NCCOCCOCCOCCOCCOCCOCCOCCOCCOCCOCCn3cc(CCC(=O)NCCCC[C@H]4NC(=O)[C@H](CCC(=O)O)NC(=O)[C@@H]5CCCN5C(=O)[C@H](CC(C)(C)C)NC(=O)[C@@H](NC(C)=O)CSCCC(=O)N5CN6CN(C5)C(=O)CCSC[C@H](NC(=O)[C@H](Cc5ccc(O)cc5)NC(=O)[C@@H]5CCCN5C4=O)C(=O)N[C@@H](Cc4ccccc4)C(=O)N[C@@H](C)C(=O)N[C@@H](CC(=O)O)C(=O)N4CCC[C@H]4C(=O)N[C@@H](Cc4ccc(O)cc4)C(=O)N[C@@H](CCCC)C(=O)N[C@H](C(=O)N[C@@H](C)C(N)=O)CSCCC6=O)nn3)(COCCC(=O)NCCOCCOCCOCCOCCOCCOCCOCCOCCOCCOCCn3cc(CCC(=O)NCCCC[C@H]4NC(=O)[C@H](CCC(=O)O)NC(=O)[C@@H]5CCCN5C(=O)[C@H](CC(C)(C)C)NC(=O)[C@@H](NC(C)=O)CSCCC(=O)N5CN6CN(C5)C(=O)CCSC[C@H](NC(=O)[C@H](Cc5ccc(O)cc5)NC(=O)[C@@H]5CCCN5C4=O)C(=O)N[C@@H](Cc4ccccc4)C(=O)N[C@@H](C)C(=O)N[C@@H](CC(=O)O)C(=O)N4CCC[C@H]4C(=O)N[C@@H](Cc4ccc(O)cc4)C(=O)N[C@@H](CCCC)C(=O)N[C@H](C(=O)N[C@@H](C)C(N)=O)CSCCC6=O)nn3)COCCC(=O)NCCOCCOCCOCCOCCOCCOCCOCCOCCOCCOCCn3cc(CCC(=O)NCCC(=O)N[C@H]4CSCCC(=O)N5CN6CN(C5)C(=O)CCSC[C@H](NC(=O)[C@@H](CC(=O)O)NC(=O)[C@H](Cc5cccc7ccccc57)NC(=O)[C@@H]5CCCN5C4=O)C(=O)N[C@@H](CCSC)C(=O)N[C@@H](CCCCNC(=N)N)C(=O)N[C@@H](CC(=O)O)C(=O)N[C@@H](Cc4c[nH]c5ccccc45)C(=O)N[C@@H](CO)C(=O)N[C@@H]([C@@H](C)O)C(=O)N4CCC[C@H]4C(=O)N4C[C@H](O)C[C@H]4C(=O)N[C@@H](Cc4c[nH]c5ccccc45)C(=O)N[C@H](C(N)=O)CSCCC6=O)nn3)nn1)C(=O)N1CCC[C@H]1C(=O)N[C@@H](Cc1ccc(O)cc1)C(=O)N2` [BCY11022] was tested, and the EC50 was 0.2 nM and the Emax [1] was 66 fold induction over background.

`CCCC[C@@H]1NC(=O)[C@H](Cc2ccc(O)cc2)NC(=O)[C@@H]2CCCN2C(=O)[C@H](CC(=O)O)NC(=O)[C@H](C)NC(=O)[C@H](Cc2ccccc2)NC(=O)[C@@H]2CSCCC(=O)N3CN(CN(C3)C(=O)CCSC[C@@H](C(=O)N[C@@H](C)C(N)=O)NC1=O)C(=O)CCSC[C@H](NC(C)=O)C(=O)N[C@@H](CC(C)(C)C)C(=O)N1CCC[C@H]1C(=O)N[C@@H](CCC(=O)O)C(=O)N[C@H](CCCCNC(=O)CCc1cn(CCOCCOCCOCCOCCOCCOCCOCCOCCOCCOCCNC(=O)CCOCCN(CCOCCC(=O)NCCOCCOCCOCCOCCOCCOCCOCCOCCOCCOCCn3cc(CCC(=O)NCCCC[C@H]4NC(=O)[C@H](CCC(=O)O)NC(=O)[C@@H]5CCCN5C(=O)[C@H](CC(C)(C)C)NC(=O)[C@@H](NC(C)=O)CSCCC(=O)N5CN6CN(C5)C(=O)CCSC[C@H](NC(=O)[C@H](Cc5ccc(O)cc5)NC(=O)[C@@H]5CCCN5C4=O)C(=O)N[C@@H](Cc4ccccc4)C(=O)N[C@@H](C)C(=O)N[C@@H](CC(=O)O)C(=O)N4CCC[C@H]4C(=O)N[C@@H](Cc4ccc(O)cc4)C(=O)N[C@@H](CCCC)C(=O)N[C@H](C(=O)N[C@@H](C)C(N)=O)CSCCC6=O)nn3)CCOCCC(=O)NCCOCCOCCOCCOCCOCCOCCOCCOCCOCCOCCn3cc(CCC(=O)N[C@H]4CSCCC(=O)N5CN6CN(C5)C(=O)CCSC[C@H](NC(=O)[C@@H](CC(=O)O)NC(=O)[C@H](Cc5cccc7ccccc57)NC(=O)[C@@H]5CCCN5C4=O)C(=O)N[C@@H](CCSC)C(=O)N[C@@H](CCCCNC(=N)N)C(=O)N[C@@H](CC(=O)O)C(=O)N[C@@H](Cc4c[nH]c5ccccc45)C(=O)N[C@@H](CO)C(=O)N[C@@H]([C@@H](C)O)C(=O)N4CCC[C@H]4C(=O)N4C[C@H](O)C[C@H]4C(=O)N[C@@H](Cc4c[nH]c5ccccc45)C(=O)N[C@H](C(N)=O)CSCCC6=O)nn3)nn1)C(=O)N1CCC[C@H]1C(=O)N[C@@H](Cc1ccc(O)cc1)C(=O)N2` [BCY11027] was tested, and the EC50 (EC50 (nM), co-culture with HT1376, Table 2A) was 0.18 nM.
